Measurements published in patent publication US10471046B2, “Method for treating, preventing, or reducing the risk of skin infection” (Melinta Subsidiary Corp., priority 2014, dated 2019).
In brackets after ≈: the same amount, converted by molar mass.

System: S. aureus
Experiment: Minimum inhibitory concentrations (MICs) for S. aureus of exemplary compounds (Table 2)
Format: cell-based
Details: minimum inhibitory concentrations for S. aureus; for MIC: Staphylococcus aureus, read-out: MICs
Text: Exemplary compounds in accordance with the invention are listed in Table 2 with their minimum inhibitory concentrations (MICs) (μg/mL) for S. aureus:
Furthermore, the antibiotic compounds can be assayed for anti-proliferative or anti-infective properties on a cellular level. For example, where the target organism is a microorganism, the activity of compounds of interest can be assayed by growing the microorganisms of interest in media either containing or lacking the compound. Growth inhibition can be indicative that the molecule could be acting as a protein synthesis inhibitor. […] For this purpose, a panel of bacterial strains can be assembled to include a variety of target pathogenic species, some containing resistance mechanisms that have been characterized. Use of such a panel of organisms permits the determination of structure-activity relationships not only in regards to potency and spectrum, but also with a view to obviating resistance mechanisms. The assays can be performed in microtiter trays according to conventional methodologies as published by The National Committee for Clinical Laboratory Standards (NCCLS) guidelines (NCCLS. M7-A5-Methods for Dilution Antimicrobial Susceptibility Tests for Bacteria That Grow Aerobically; Approved Standard-Fifth Edition. NCCLS Document M100-S12/M7 (ISBN 1-56238-394-9)).

Compound | MIC [µg/mL] | MICs [µg/mL]
CC(=O)NC[C@H]1CN(c2ccc(-c3ccc(CN4CCC(C(N)=O)C4)cc3)c(F)c2)C(=O)O1 (mixture of isomers) [Compound 1093, 1-{4′-[5-(S)-(Acetylamino-methyl)-2-oxo-oxazolidin-3-yl]-2′-fluoro-biphenyl-4-ylmethyl}-pyrrolidine-3-(R/S)-carboxylic acid amide] | 2 | –
CC(=O)NC[C@H]1CN(c2ccc(-c3ccc(CN4CCCC(F)C4)cc3)c(F)c2)C(=O)O1 (mixture of isomers) [Compound 1096, N-{3-[2-Fluoro-4′-(3-(R/S)-fluoro-piperidin-1-ylmethyl)-biphenyl-4-yl]-2-oxo-oxazolidin-5-(S)-ylmethyl}-acetamide] | 1 | –
CC(=O)NC[C@H]1CN(c2ccc(-c3ccc(C(C)NCc4ccoc4)cc3)c(F)c2)C(=O)O1 (mixture of isomers) [Compound 4144, N-[3-(2-Fluoro-4′-{1-(R/S)-[(furan-3-ylmethyl)-amino]-ethyl}-biphenyl-4-yl)-2-oxo-oxazolidin-5-(S)-ylmethyl]-acetamide] | 4 | –
CC(=O)NC[C@H]1CN(c2ccc(-c3ccc(C(C)NCc4nccs4)cc3)c(F)c2)C(=O)O1 (mixture of isomers) [Compound 4145, N-[3-(2-Fluoro-4′-{1-(R/S)-[(thiazol-2-ylmethyl)-amino]-ethyl}-biphenyl-4-yl)-2-oxo-oxazolidin-5-(S)-ylmethyl]-acetamide] | 2 | –
CC(=O)NC[C@H]1CN(c2ccc(-c3ccc(CNCCC4CCCN4C)cc3)c(F)c2)C(=O)O1 (mixture of isomers) [Compound 4150, N-[3-(2-Fluoro-4′-{[2-(R/S)-(1-methyl-pyrrolidin-2-yl)-ethylamino]-methyl}-biphenyl-4-yl)-2-oxo-oxazolidin-5-(S)-ylmethyl]-acetamide] | 16 | –
CC(=O)NC[C@H]1CN(c2ccc(-c3ccc(C(C)NCc4ccncc4)cc3)c(F)c2)C(=O)O1 (mixture of isomers) [Compound 4232, N-[3-(2-Fluoro-4′-{1-(R/S)-[(pyridin-4-ylmethyl)-amino]-ethyl}-biphenyl-4-yl)-2-oxo-oxazolidin-5-(S)-ylmethyl]-acetamide] | 8 | –
CC(=O)NC[C@H]1CN(c2ccc(-c3ccc(CNCC(O)c4ccc(F)cc4)cc3)c(F)c2)C(=O)O1 (mixture of isomers) [Compound 4275, N-[3-(2-Fluoro-4′-{[2-(4-fluoro-phenyl)-2-(R/S)-hydroxy-ethylamino]-methyl}-biphenyl-4-yl)-2-oxo-oxazolidin-5-(S)-ylmethyl]-acetamide] | 0.5 | –
CC(=O)NC[C@H]1CN(c2ccc(-c3ccc(CNC(=O)C4CNCCN4)cc3)c(F)c2)C(=O)O1 (mixture of isomers) [Compound 4322, Piperazine-2-(R/S)-carboxylic acid {4′-[5-(S)-(acetylamino-methyl)-2-oxo-oxazolidin-3-yl]-2′-fluoro-biphenyl-4-ylmethyl}-amide] | 2 | –
CC(=O)NC[C@H]1CN(c2ccc(-c3ccc(C(N)c4nnn(C)n4)cc3)c(F)c2)C(=O)O1 (mixture of isomers) [Compound 1042, N-(3-{4′-[Amino-(2-methyl-2H-tetrazol-5-(R/S)-yl)-methyl]-2-fluoro-biphenyl-4-yl}-2-oxo-oxazolidin-5-(S)-ylmethyl)-acetamide] | 64 (≈ 146 µM) | –
CC(=O)NC[C@H]1CN(c2ccc(-c3ccc(CN4CC(CF)OC4=O)cc3)c(F)c2)C(=O)O1 (mixture of isomers) [Compound 1095, N-{3-[2-Fluoro-4′-(5-fluoromethyl-2-oxo-oxazolidin-3-(R/S)ylmethyl)-biphenyl-4-yl]-2-oxo-oxazolidin-5-(S)-ylmethyl}-acetamide] | 0.5 (≈ 1.09 µM) | –
CC(=O)NC[C@H]1CN(c2ccc(-c3ccc(CNC(C)c4ccncc4)cc3)c(F)c2)C(=O)O1 (mixture of isomers) [Compound 4159, N-(3-{2-Fluoro-4′-[(1-pyridin-4-(R/S)-yl-ethylamino)-methyl]-biphenyl-4-yl}-2-oxo-oxazolidin-5-(S)-ylmethyl)-acetamide] | 2 (≈ 4.32 µM) | –
CC(=O)NC[C@H]1CN(c2ccc(-c3ccc(C(C)NC(C)c4ccncc4)cc3)c(F)c2)C(=O)O1 (mixture of isomers) [Compound 4160, N-(3-{2-Fluoro-4′-[1-(R/S)-(1-pyridin-4-(R/S)-yl-ethylamino)-ethyl]-biphenyl-4-yl}-2-oxo-oxazolidin-5-(S)-ylmethyl)-acetamide] | 8 (≈ 16.8 µM) | –
CC(=O)NC[C@H]1CN(c2ccc(-c3ccc(C(CO)NCc4csnn4)cc3)c(F)c2)C(=O)O1 (mixture of isomers) [Compound 4171, N-[3-(2-Fluoro-4′-{2-hydroxy-1-[([1,2,3]thiadiazol-4-(R/S)-ylmethyl)-amino]-ethyl}-biphenyl-4-yl)-2-oxo-oxazolidin-5-(S)-ylmethyl]-acetamide] | 4 (≈ 8.24 µM) | –
CC(=O)NC[C@H]1CN(c2ccc(-c3ccc(C(CO)NCc4csnn4)cc3)c(F)c2)C(=O)O1 (mixture of isomers) [Compound 4172, N-[3-(2-Fluoro-4′-{2-hydroxy-1-[([1,2,3]thiadiazol-4-(R/S)-ylmethyl)-amino]-ethyl}-biphenyl-4-yl)-2-oxo-oxazolidin-5-(S)-ylmethyl]-acetamide] | – | 8
CC(=O)NC[C@H]1CN(c2ccc(-c3ccc(C(O)Cc4nnn[nH]4)cc3)c(F)c2)C(=O)O1 (stereo in doubt) [Compound 1060, N-(3-{2-Fluoro-4′-[1-(R)-hydroxy-2-(1H-tetrazol-5-yl)-ethyl]-biphenyl-4-yl}-2-oxo-oxazolidin-5-(S)-ylmethyl)-acetamide] | 64 (≈ 145 µM) | –
CC(=O)NC[C@H]1CN(c2ccc(-c3ccc(CNC(=O)C(N)Cc4cccnc4)cc3)c(F)c2)C(=O)O1 (stereo in doubt) [Compound 4310, N-{4′-[5-(S)-(Acetylamino-methyl)-2-oxo-oxazolidin-3-yl]-2′-fluoro-biphenyl-4-ylmethyl}-2-(R)-amino-3-pyridin-3-yl-propionamide] | 4 (≈ 7.91 µM) | –
CC(=O)NC[C@H]1CN(c2ccc(-c3ccc(CCn4ccnc4)cc3)c(F)c2)C(=O)O1 [Compound 1002, N-{3-[2-Fluoro-4′-(2-imidazol-1-yl-ethyl)-biphenyl-4-yl]-2-oxo-oxazolidin-5-(S)-ylmethyl}-acetamide] | 2 (≈ 4.73 µM) | –
CC(=O)NC[C@H]1CN(c2ccc(-c3ccc(CN4CCN(CC(N)=O)CC4)cc3)c(F)c2)C(=O)O1 [Compound 1003, 2-(4-{4′-[5-(S)-(Acetylamino-methyl)-2-oxo-oxazolidin-3-yl]-2′-fluoro-biphenyl-4-ylmethyl}-piperazin-1-yl)-acetamide] | 2 (≈ 4.14 µM) | –

Continued by falling MIC, values first:

MIC [µg/mL] | MICs [µg/mL] | Compound
128 (≈ 229 µM) | – | CC(=O)NC[C@H]1CN(c2ccc(-c3ccc(C(NC(=O)OCc4ccccc4)c4nn[nH]n4)cc3)c(F)c2)C(=O)O1 (mixture of isomers) [Compound 1039, [{4′-[5-(S)-(Acetylamino-methyl)-2-oxo-oxazolidin-3-yl]-2′-fluoro-biphenyl-4-yl}-(2H-tetrazol-5-(R/S)-yl)-methyl]-carbamic acid benzyl ester]
128 (≈ 301 µM) | – | CC(=O)NC[C@H]1CN(c2ccc(-c3ccc(C(N)c4nn[nH]n4)cc3)c(F)c2)C(=O)O1 (mixture of isomers) [Compound 1040, N-(3-{4′-[Amino-(2H-tetrazol-5-(R/S)-yl)-methyl]-2-fluoro-biphenyl-4-yl}-2-oxo-oxazolidin-5-(S)-ylmethyl)-acetamide]
8 (≈ 19.4 µM) | – | CC(=O)NC[C@H]1CN(c2ccc(-c3ccc(CNC4CNC4)cc3)c(F)c2)C(=O)O1 (racemic) [Compound 2011, N-{3-[4′-(Azetidin-3-(R/S)-ylaminomethyl)-2-fluoro-biphenyl-4-yl]-2-oxo-oxazolidin-5-(S)-ylmethyl}-acetamide]
4 | – | CC(=O)NC[C@H]1CN(c2ccc(-c3ccc(CNCC4CCNC4)cc3)c(F)c2)C(=O)O1 (mixture of isomers) [Compound 4153, N-[3-(2-Fluoro-4′-{[(pyrrolidin-3-(R/S)-ylmethyl)-amino]-methyl}-biphenyl-4-yl)-2-oxo-oxazolidin-5-(S)-ylmethyl]-acetamide]
4 | – | CC(=O)NC[C@H]1CN(c2ccc(-c3ccc(CNCC4CCCN4)cc3)c(F)c2)C(=O)O1 (mixture of isomers) [Compound 4279, N-[3-(2-Fluoro-4′-{[(pyrrolidin-2-(R/S)-ylmethyl)-amino]-methyl}-biphenyl-4-yl)-2-oxo-oxazolidin-5-(S)-ylmethyl]-acetamide]
2 | – | CC(=O)NC[C@H]1CN(c2ccc(-c3ccc(CNC(C)c4cnn[nH]4)cc3)c(F)c2)C(=O)O1 (mixture of isomers) [Compound 4278, N-[3-(2-Fluoro-4′-{[1-(R/S)-(3H-[1,2,3]triazol-4-yl)-ethylamino]-methyl}-biphenyl-4-yl)-2-oxo-oxazolidin-5-(S)-ylmethyl]-acetamide]
2 (≈ 4.72 µM) | – | CC(=O)NC[C@H]1CN(c2ccc(-c3ccc(CCn4ccnn4)cc3)c(F)c2)C(=O)O1 [Compound 1001, N-{3-[2-Fluoro-4′-(2-[1,2,3]triazol-1-yl-ethyl)-biphenyl-4-yl]-2-oxo-oxazolidin-5-(S)-ylmethyl}-acetamide]
1 (≈ 1.74 µM) | – | CC(=O)NC[C@H]1CN(c2ccc(-c3ccc(C(NC(=O)OCc4ccccc4)c4nnn(C)n4)cc3)c(F)c2)C(=O)O1 (mixture of isomers) [Compound 1041, [{4′-[5-(S)-(Acetylamino-methyl)-2-oxo-oxazolidin-3-yl]-2′-fluoro-biphenyl-4-yl}-(2-methyl-2H-tetrazol-5-(R/S)-yl)-methyl]-carbamic acid benzyl ester]
